For assay [1], the system named is Trichophyton rubrum (IOC 4527). Kind of assay: Resazurin microtiter assay plate, antifungal MIC90. The assay is classed as cell-based. Particulars: resazurin colour change, RPMI 1640, 1 to 250 μM, 28 °C, 24–72 h; three independent experiments. The procedure: (§1) The derived peptides were also tested against fungi species using the classical resazurin microtiter assay plate method. It is based on the color change of the rezazurin dye that in blue indicates the absence of growth in at least 90%, and pink refers to microorganism growth. MIC is determined as the minimal concentration of the sample that can prevent the color change from blue to pink and refers to the inhibition of 90% of microorganisms.
(§2) The antifungal activity was evaluated by the microdilution assay as previously described on clinical strains of Candida albicans (IOC 4525), Cryptococcus neoformans (IOC 4528), Trichophyton rubrum (IOC 4527) and Aspergillus fumigatus (IOC 4526). The fungi were cultivated in potato dextrose agar at 28 °C according to the Clinical and Laboratory Standards Institute recommendations. Fungal suspensions were prepared in RPMI 1640 culture media; the CFU/mL was adjusted to 0.5–2.5 × 10^3 for yeasts (C. albicans and C. neoformans) and 0.4–5 × 10^4 CFU/mL for filamentous fungi (T. rubrum e A. fumigatus), by comparison with a standard curve previously stablished in our laboratory.
(§3) The peptides PS1, PS2, PS, PS3, PS4, PS5 and PS6 at 1 mM in acetic acid at 0.01% were diluted in RPMI 1640 culture media at concentrations ranging from 1 to 250 μM. Amphotericin B (AMB) at concentrations below 15 μg/mL (16 μM) and acetic acid from 0.0002 to 0.0025% was used as control.
(§4) The fungi suspensions were added to a 96 well plate (100 µL/well) and the samples (100 µL) in different concentrations were added to each well. The plate was incubated at 28 °C for 24–72 h, and 24 h before the end of the assay 25 µL of the rezazurin dye at 0.02% were added to each well. The minimal inhibitory concentration (MIC90) was defined as the lowest concentration that prevents the rezazurin’s change in color from blue to pink due to the inhibition of at least 90% of the microorganism’s growth. The assays were performed in three independent experiments.
Background: Resazurin is reduced to fluorescent resorufin, in cell work by metabolically active cells.

Assay [2] deals with Cryptococcus neoformans (IOC 4528). Kind of assay: Resazurin microtiter assay plate, antifungal MIC90. The assay is classed as cell-based. Particulars: resazurin colour change, RPMI 1640, 1 to 250 μM, 28 °C, 24–72 h; three independent experiments. The procedure: as §1, §2, §3, §4
The subject of assay [3] is Candida albicans (IOC 4525). Kind of assay: Resazurin microtiter assay plate, antifungal MIC90. The assay is classed as cell-based. The following applies: resazurin colour change, RPMI 1640, 1 to 250 μM, 28 °C, 24–72 h; three independent experiments. The method, then: as §1, §2, §3, §4
For assay [4], the system named is Aspergillus fumigatus (IOC 4526). Kind of assay: Resazurin microtiter assay plate, antifungal MIC90. The format is cell-based. The following applies: resazurin colour change, RPMI 1640, 1 to 250 μM, 28 °C, 24–72 h; three independent experiments. The procedure: as §1, §2, §3, §4
Assay [5] concerns Klebsiella pneumonia. Kind of assay: Microbroth dilution assay, MIC. The assay is classed as cell-based, Klebsiella pneumoniae. The following applies: short derived peptides, 2.75 to 700 µg/mL, overnight 37 °C, read at 600 nm, three independent experiments. The procedure: (§5) The β-defensins were tested using a microbroth dilution assay. It consists of incubating the bacteria (4.105 colony-forming unit—CFU/mL) and the peptide (from 1 to 512 µg/mL) in liquid broth. After the incubation at 37 °C during the night, the bacterial growth was detected by spectrophotometry at 600 nm. If the measure is similar to the broth, it […]. […] The β-defensins were tested against B. jararaca oral flora because it would be of biological and medical interest. In addition, we tested on E. coli ATCC 25922 and M. luteus that are common Gram-negative and Gram-positive bacteria used in antibacterial tests.
(§6) The antibacterial activity of the alkylated peptides was tested against Gram-negative (G−) bacteria (Klebsiella pneumonia, Serratia marcescens, Morganella morganii, Providencia rettgeri, Citrobacter freundii, Escherichia coli ATCC 25922 and Gram-positive (G+) bacteria (Micrococcus luteus A270 and Staphylococcus aureus) using microbroth assay. In a 96-well plate, 90 µL of 10% tryptone soy broth (TSB) with 4 × 10^5 colony-forming unit (CFU/mL) were mixed with serial twofold dilutions of β-defensins duplicate in concentrations from 512 to 1 µg/mL. The derived peptides coded as PS1, PS2, PS3, PS5, and PS6 (Table 1) were tested against these bacteria in serial twofold dilutions with concentrations bellow 700 µg/mL. After overnight incubation at 37 °C, the turbidity of the bacterial culture was read at 600 nm (Epoch microplate reader, Biotek). The minimal inhibitory concentration (MIC) of each peptide was determined as the lowest concentration that results in no visible bacterial growth. The MIC resulted from three independent experiments. The bacteria K. pneumonia, S. marcescens, M. morganii, P. rettgeri, C. freundii, M. luteus A270 and S. aureus were isolated from Bothrops jararaca buccal flora and kindly provided by Dr. Márcia R. Franzolin (Laboratory of Bacteriology—Instituto Butantan). M. luteus was kindly provided by Dr. Pedro I. da Silva Jr. (Laboratory of Applied Toxinology—Instituto Butantan).

Assay [6] has as its system Citrobacter freundii. Kind of assay: Microbroth dilution assay, MIC. The following applies: short derived peptides, 2.75 to 700 µg/mL, overnight 37 °C, read at 600 nm, three independent experiments. The assay is classed as cell-based. The method, then:
as §5, §6
A general note: Broth dilution looks for growth in wells or tubes with falling amounts of substance.

Assay [7] has as its system Staphylococcus aureus. Kind of assay: Microbroth dilution assay, MIC. The format is cell-based. The following applies: short derived peptides, 2.75 to 700 µg/mL, overnight 37 °C, read at 600 nm, three independent experiments. The procedure:
as §5, §6

Assay [8] deals with Escherichia coli ATCC 25922. Kind of assay: Microbroth dilution assay, MIC. The following applies: short derived peptides, 2.75 to 700 µg/mL, overnight 37 °C, read at 600 nm, three independent experiments. The format is cell-based. The procedure:
as §5, §6

Assay [9] concerns Micrococcus luteus A270. Kind of assay: Microbroth dilution assay, MIC. The format is cell-based. The following applies: short derived peptides, 2.75 to 700 µg/mL, overnight 37 °C, read at 600 nm, three independent experiments. The method, then:
as §5, §6

In brackets after ≈: the same amount, converted by molar mass. Residues, ends and D or L forms follow the SMILES beside them. A value given as a limit tells only on which side of the number the result lay.

For `N=C(N)NCCC[C@H](NC(=O)[C@H](Cc1c[nH]c2ccccc12)NC(=O)[C@H](CCCNC(=N)N)NC(=O)[C@@H](N)CO)C(=O)N[C@@H](Cc1c[nH]c2ccccc12)C(=O)N[C@@H](CCCCN)C(=O)N[C@@H](CO)C(=O)N[C@@H](CO)C(=O)N[C@@H](CCCCN)C(=O)N[C@@H](CCCCN)C(=O)NCC(=O)N[C@@H](CO)C(=O)NCC(=O)O` [PS1] (H-SRWRWKSSKKGSG-OH), in assay [1], the “MIC90, Trichophyton rubrum” value is recorded as >250 µM. The “MIC90, Cryptococcus neoformans” value in [2] was >250 µM. In assay [3], the “MIC90, Candida albicans” value was >250 µM. Also, in [4], the “MIC90, Aspergillus fumigatus” value is given as >250 µM. The “MIC, K. pneumoniae” value in [5] is reported as >452 µM. Moreover, the “MIC, C. freundii” value in assay [6] was found to be 113 µM (≈ 175 µg/mL). Also, the “MIC, S. aureus” value in assay [7] is listed as 56.5 µM (≈ 87.6 µg/mL). For the same molecule, in [8], the “MIC, E. coli” value is on record as 56.5 µM (≈ 87.6 µg/mL). Further, the “MIC, M. luteus” value in [9] is recorded as 28.4 µM (≈ 44 µg/mL).

Consider `N=C(N)NCCC[C@H](NC(=O)CNC(=O)[C@@H]1CCCN1C(=O)CNC(=O)[C@@H](N)CO)C(=O)N[C@@H](CCCNC(=N)N)C(=O)N[C@@H](CO)C(=O)N[C@@H](CO)C(=O)N[C@@H](CCCNC(=N)N)C(=O)N[C@@H](CCCNC(=N)N)C(=O)N[C@@H](CCCNC(=N)N)C(=O)N[C@@H](Cc1c[nH]c2ccccc12)C(=O)N[C@@H](CCCCN)C(=O)O` [PS5] (H-SGPGRRSSRRRWK-OH), for which the “MIC90, Trichophyton rubrum” value in [1] was >250 µM. In addition, in assay [2], the “MIC90, Cryptococcus neoformans” value is on record as >250 µM. The “MIC90, Candida albicans” value in assay [3] is listed as >250 µM. In addition, the “MIC90, Aspergillus fumigatus” value in assay [4] is listed as >250 µM. Also, in assay [5], the “MIC, K. pneumoniae” value was found to be 27.7 µM (≈ 43.9 µg/mL). In addition, the “MIC, C. freundii” value in assay [6] was 110 µM (≈ 174 µg/mL). Besides, the “MIC, S. aureus” value in [7] came out at 27.7 µM (≈ 43.9 µg/mL). Further, in [8], the “MIC, E. coli” value worked out at 55.2 µM (≈ 87.5 µg/mL). In addition, the “MIC, M. luteus” value in [9] worked out at 13.9 µM (≈ 22 µg/mL).

As for `N=C(N)NCCC[C@H](NC(=O)CNC(=O)[C@@H]1CCCN1C(=O)CNC(=O)[C@@H](N)CO)C(=O)N[C@@H](CCCNC(=N)N)C(=O)N[C@@H](CO)C(=O)N[C@@H](CO)C(=O)N[C@@H](CCCNC(=N)N)C(=O)N[C@@H](CCCNC(=N)N)C(=O)N[C@@H](CCCNC(=N)N)C(=O)N[C@@H](CCCCN)C(=O)O` [PS3] (H-SGPGRRSSRRRK-OH), the “MIC90, Trichophyton rubrum” value in assay [1] was >250 µM. Also, the “MIC90, Cryptococcus neoformans” value in assay [2] is on record as >250 µM. Besides, the “MIC90, Candida albicans” value in assay [3] is >250 µM. In [4], the “MIC90, Aspergillus fumigatus” value was >250 µM. For the same molecule, the “MIC, K. pneumoniae” value in assay [5] was >500 µM. For the same molecule, the “MIC, C. freundii” value in [6] is >500 µM. Moreover, the “MIC, S. aureus” value in [7] is given as 125 µM (≈ 175 µg/mL). In assay [8], the “MIC, E. coli” value is >500 µM. Moreover, the “MIC, M. luteus” value in assay [9] turned out to be 31.5 µM (≈ 44.1 µg/mL).

Take `CSCC[C@H](NC(=O)[C@H](CCC(N)=O)NC(=O)[C@@H](N)CO)C(=O)NCC(=O)N[C@@H](CCCNC(=N)N)C(=O)N[C@@H](CCSC)C(=O)N[C@@H](CO)C(=O)N[C@@H](CO)C(=O)N[C@@H](CCCNC(=N)N)C(=O)N[C@@H](CCCNC(=N)N)C(=O)N[C@@H](CCCNC(=N)N)C(=O)N[C@@H](Cc1ccccc1)C(=O)NCC(=O)N[C@@H](CCCCN)C(=O)O` [PS2] (H-SQMGRMSSRRRFGK-OH): the “MIC90, Trichophyton rubrum” value in assay [1] was >250 µM. The “MIC90, Cryptococcus neoformans” value in assay [2] was >250 µM. For the same molecule, in [3], the “MIC90, Candida albicans” value is recorded as >250 µM. Also, the “MIC90, Aspergillus fumigatus” value in assay [4] is on record as >250 µM. For the same molecule, the “MIC, K. pneumoniae” value in assay [5] was >415 µM. Moreover, the “MIC, C. freundii” value in [6] was >415 µM. In assay [7], the “MIC, S. aureus” value stood at 415 µM (≈ 699 µg/mL). Also, in [8], the “MIC, E. coli” value worked out at 415 µM (≈ 699 µg/mL). Moreover, the “MIC, M. luteus” value in assay [9] is on record as 26.1 µM (≈ 44 µg/mL).

(Values after paper PMC8777785, “Antimicrobial Activity of Snake β-Defensins and Derived Peptides” (Toxins, 2021).)
